The text below walks through data of ChEMBL document CHEMBL3044540, “Synthesis and Fungicidal Activity of New 6-Alkyl-2-alkylamino-4H-1, 3, 2-benzodioxaphosphorin 2-Sulfides” (1998).

Structures are written as SMILES.

Common to all, as to type: functional
Test [1] deals with Pythium. Put plainly: Antifungal activity against Pythium sp. assessed as growth inhibition at 10 ppm by agar dilution method. To be noted: read-out: GI.
The test system of test [2] is Athelia rolfsii. Kind of test: Antifungal activity against Athelia rolfsii assessed as growth inhibition at 10 ppm by agar dilutopn method. To be noted: Agroathelia rolfsii; read-out: GI.
Test [3] concerns Pythium. Kind of test: Antifungal activity against Pythium sp. assessed as growth inhibition at 100 ppm by agar dilution method. To be noted: read-out: GI. In general terms: Agar dilution tests growth on a series of plates holding different concentrations.
For test [4], the system named is Athelia rolfsii. Kind of test: Antifungal activity against Athelia rolfsii assessed as growth inhibition at 100 ppm by agar dilutopn method. The note with it: Agroathelia rolfsii; read-out: GI.

In the case of `CCCCNP1(=S)OCc2cc(CCCC)ccc2O1` (centres undefined), the inhibition of growth at 10 ppm was determined as 5% in the test with Pythium [1] and 44% with Athelia rolfsii [2]. The inhibition of growth at 100 ppm was 33% with Pythium [3] and 70% in the test on Athelia rolfsii [4].

In the case of `CCCCc1ccc2c(c1)COP(=S)(NCC(C)C)O2` (centres undefined), the inhibition of growth at 10 ppm in the test on Pythium [1] came to 8%; in the test on Athelia rolfsii [2], 22%. Besides, the results for the inhibition of growth at 100 ppm in the test on Pythium [3] and in the test with Athelia rolfsii [4] were 28% and 48%, respectively.

As for `CCCCc1ccc2c(c1)COP(=S)(NC(C)CC)O2` (centres undefined), the inhibition of growth at 10 ppm came to 33% in the test with Pythium [1] and 24% in the test on Athelia rolfsii [2]. For the same compound, the inhibition of growth at 100 ppm with Pythium [3] is 38%; in the test on Athelia rolfsii [4] it was 47%.

For the compound `CCCNP1(=S)OCc2cc(C(C)CC)ccc2O1` (centres undefined), the inhibition of growth at 10 ppm with Pythium [1] turned out to be 14%; in the test with Athelia rolfsii [2] it was 48%. In addition, the inhibition of growth at 100 ppm in the test with Pythium [3] turned out to be 48%; with Athelia rolfsii [4] it was 77%.

In the case of `CCC(C)c1ccc2c(c1)COP(=S)(NC(C)C)O2` (centres undefined), the inhibition of growth at 10 ppm amounted to 0% in the test on Pythium [1] and 28% with Athelia rolfsii [2]. For the same compound, the inhibition of growth at 100 ppm in the test on Pythium [3] is 48%; with Athelia rolfsii [4], 75%.

For `CCCCNP1(=S)OCc2cc(C(C)CC)ccc2O1` (centres undefined), the inhibition of growth at 10 ppm in the test on Pythium [1] is 4%; in the test on Athelia rolfsii [2], 39%. The inhibition of growth at 100 ppm amounted to 11% in the test on Pythium [3] and 63% in the test on Athelia rolfsii [4].

Turning to `CCC(C)c1ccc2c(c1)COP(=S)(NCC(C)C)O2` (centres undefined), the inhibition of growth at 10 ppm is 0% with Pythium [1] and 31% with Athelia rolfsii [2]. Besides, the figures for the inhibition of growth at 100 ppm with Pythium [3] and in the test on Athelia rolfsii [4] were 14% and 63%, respectively.

Turning to `CCC(C)NP1(=S)OCc2cc(C(C)CC)ccc2O1` (centres undefined), the inhibition of growth at 10 ppm with Pythium [1] and in the test on Athelia rolfsii [2] was 0% throughout. Further, the inhibition of growth at 100 ppm in the test on Pythium [3] was 7%; in the test with Athelia rolfsii [4] it was 37%.

As for `CCCNP1(=S)OCc2cc(CCC)ccc2O1` (centres undefined), the inhibition of growth at 10 ppm was 66% with Pythium [1] and 63% in the test with Athelia rolfsii [2]. In addition, the inhibition of growth at 100 ppm with Pythium [3] is 87%; with Athelia rolfsii [4], 92%.

For the compound `CCCc1ccc2c(c1)COP(=S)(NC(C)C)O2` (centres undefined), the inhibition of growth at 10 ppm amounted to 59% in the test on Pythium [1] and 57% with Athelia rolfsii [2]. The inhibition of growth at 100 ppm worked out at 80% in the test with Pythium [3] and 81% in the test with Athelia rolfsii [4].

For `CCCCNP1(=S)OCc2cc(CCC)ccc2O1` (centres undefined), the inhibition of growth at 10 ppm in the test on Pythium [1] amounted to 54%; in the test with Athelia rolfsii [2], 66%. For the same compound, the inhibition of growth at 100 ppm amounted to 65% in the test on Pythium [3] and 76% in the test on Athelia rolfsii [4].

`CCCc1ccc2c(c1)COP(=S)(NCC(C)C)O2` (centres undefined): the results for the inhibition of growth at 10 ppm in the test on Pythium [1] and with Athelia rolfsii [2] were 44% and 59%, respectively. Also, the values for the inhibition of growth at 100 ppm in the test on Pythium [3] and in the test on Athelia rolfsii [4] were 57% and 79%, respectively.

On to `CCCc1ccc2c(c1)COP(=S)(NC(C)CC)O2` (centres undefined), for which the inhibition of growth at 10 ppm in the test with Pythium [1] and in the test with Athelia rolfsii [2] was 44% throughout. Also, the values for the inhibition of growth at 100 ppm with Pythium [3] and in the test on Athelia rolfsii [4] were 59% and 64%, respectively.

As to `CCCNP1(=S)OCc2cc(C(C)C)ccc2O1` (centres undefined), the inhibition of growth at 10 ppm in the test on Pythium [1] was 57%; in the test on Athelia rolfsii [2] it was 58%. The inhibition of growth at 100 ppm in the test with Pythium [3] worked out at 75%; in the test on Athelia rolfsii [4], 90%.

Take `CC(C)NP1(=S)OCc2cc(C(C)C)ccc2O1` (centres undefined): the inhibition of growth at 10 ppm with Pythium [1] stood at 53%; in the test with Athelia rolfsii [2], 58%. Moreover, the inhibition of growth at 100 ppm in the test on Pythium [3] stood at 82%; with Athelia rolfsii [4] it was 90%.

With `CCCCNP1(=S)OCc2cc(C(C)C)ccc2O1` (centres undefined), the inhibition of growth at 10 ppm was found to be 29% with Pythium [1] and 56% in the test on Athelia rolfsii [2]. Besides, the inhibition of growth at 100 ppm with Pythium [3] was found to be 49%; in the test on Athelia rolfsii [4] it was 70%.

As to `CC(C)CNP1(=S)OCc2cc(C(C)C)ccc2O1` (centres undefined), the inhibition of growth at 10 ppm in the test with Pythium [1] stood at 14%; in the test on Athelia rolfsii [2], 49%. Moreover, the inhibition of growth at 100 ppm in the test with Pythium [3] amounted to 18%; with Athelia rolfsii [4], 76%.

Consider `CCC(C)NP1(=S)OCc2cc(C(C)C)ccc2O1` (centres undefined), for which the results for the inhibition of growth at 10 ppm in the test on Pythium [1] and with Athelia rolfsii [2] were 11% and 34%, respectively. Besides, the inhibition of growth at 100 ppm with Pythium [3] worked out at 43%; in the test with Athelia rolfsii [4], 68%.

On to `CCCCc1ccc2c(c1)COP(=S)(NCCC)O2` (centres undefined), for which the inhibition of growth at 10 ppm is 54% in the test on Pythium [1] and 55% with Athelia rolfsii [2]. The inhibition of growth at 100 ppm in the test with Pythium [3] is 72%; in the test with Athelia rolfsii [4], 71%.

As to `CCCCc1ccc2c(c1)COP(=S)(NC(C)C)O2` (centres undefined), the inhibition of growth at 10 ppm is 54% with Pythium [1] and 42% with Athelia rolfsii [2]. Also, the inhibition of growth at 100 ppm in the test on Pythium [3] turned out to be 57%; with Athelia rolfsii [4] it was 59%.

For the compound `CC(C)OP(=O)(OC(C)C)SCc1ccccc1` [IPROBENFOS], the inhibition of growth at 10 ppm in the test with Pythium [1] is 42%; with Athelia rolfsii [2] it was 69%. In addition, the inhibition of growth at 100 ppm was 89% in the test with Pythium [3] and 100% with Athelia rolfsii [4].
